Read-outs that look alike come from different tables or passages of the source. Marks after values point to notes of the source that are not given here.
How the values were obtained:
PC3-pip cells [1] = assay: cellular processing (membrane-bound / internalized activity); assay type: cell-based; conditions: 2 nM, continuous incubation, after 8 h
Procedure: To evaluate cellular processing of technetium-99m-labeled BQ0500 and BQ0501, PC3-pip cells were incubated with the radiolabeled tracer (2 nM), and at 1, 2, 4, and 8 h of continuous incubation, the membrane-bound and internalized fractions were collected as previously described using 4 M urea solution in 0.2 M glycine buffer (pH 2) to collect membrane-bound fraction and 1 N solution of NaOH to collect the internalized fraction. The activity in the samples was measured, and the percentage of membrane-bound and internalized activity was calculated. The experiments were performed in triplicate.

PC3-pip cells [2] = assay: in vitro binding specificity test; assay type: cell-based; conditions: 1 h, 37 °C
Procedure: For the in vitro binding specificity test, approximately 8 × 10^5 PC3-pip cells per well were seeded 24 h before the experiment. […] Technetium-99m-labeled tracers were added to each well to reach a concentration of 2 nM. After 1 h of incubation at 37 °C, cells were washed with PBS solution, detached, and collected. Cell-associated activity was measured using a gamma counter and presented as the percentage of added activity.

[3] = assay type: in vitro ADME, murine; conditions: 1 h
Procedure: (§1) To evaluate the label’s stability, 10 μL (0.25 μg) of radiolabeled conjugates was incubated with 300× molar excess of cysteine or with PBS for 1 h at room temperature. The test was run in triplicate. The release of free technetium-99m was controlled by using iTLC and radio-HPLC analysis. The stability in serum was analyzed by mixing the radioconjugates (0.25 μg in 10 μL) with murine serum or PBS (40 μL) as a control. The samples were incubated for 1 h at 37 °C and analyzed by iTLC. The experiment was performed in triplicate. The octanol–water distribution coefficient (Log D) was determined experimentally by the addition of 100 pmol of the radiolabeled tracer to an Eppendorf tube containing PBS (500 μL) and n-octanol (500 μL), pH ∼ 7.4. The solution was vortexed and centrifuged, and aliquots (50 μL) from each phase were collected and measured using a gamma counter. The experiment was performed in triplicate.

physchem = assay type: physicochemical; conditions: pH 7.4
Procedure: as §1

PC3-pip xenografts = assay: biodistribution and tumor targeting in PC3-pip tumor-bearing mice; assay type: in vivo
Text: The injected masses for the in vivo experiments were chosen based on the findings for [^99mTc]-Tc-BQ0413: to study the general biodistribution of radiolabeled tracers in normal mice (NMRI), 40 pmol of tracer was used to avoid blocking of PSMA-mediated uptake in kidneys and salivary glands, to study tumor targeting, 5 nmol of tracer was used to decrease uptake in PSMA-expressing organs.
PSMA-expressing PCa xenografts were implanted in BALB/c nu/nu mice by subcutaneous injection of the PC3-pip cell suspension in PBS (10^7 cells/animal in 100 μL). The average animal weight in the experiment was 18 ± 2 g. The average tumor weight was 0.4 ± 0.2 g. For in vivo specificity control, 10^7 cells/animal PSMA-negative PC-3 cells were implanted. The average animal weight was 18 ± 1 g. The average tumor weight was 0.1 ± 0.1 g. Four mice per data point were used in the in vivo experiments.
For tumor-bearing mice, each mouse was intravenously injected with 5 nmol of [^99mTc]-Tc-BQ0413, [^99mTc]-Tc-BQ0500, and [^99mTc]-Tc-BQ0501 (60 kBq; the mass of the injected compound was adjusted with an unlabeled tracer). The mice were euthanized after lethal intraperitoneal injection of ketamine/xylazine, followed by exsanguination 1 and 3 h pi, similarly to the procedure described above.

PSMA = target: T1, PSMA (Homo sapiens, UniProt Q04609); assay: binding kinetics in real time on living PC3-pip cells (LigandTracer Yellow)
T1 construct: expressed in transfected cells; host or cells: PC3-pip (PSMA-transfected PC-3 prostate carcinoma cells), from Prof; Martin G. Pomper, Johns Hopkins University
Procedure: The binding kinetics of technetium-99m-labeled BQ0413, BQ0500, and BQ0501 were determined in PC3-pip cells in real-time using LigandTracer Yellow (Ridgeview Instruments AB, Uppsala, Sweden). The activity binding was recorded with 5 nM radiolabeled tracers for 150 min. After the binding kinetics were measured, the medium containing the labeled tracer was replaced with fresh medium, and the dissociation was monitored over 7 h. The association rate (k a) and the dissociation rate (k d) were computed using a 1:2 kinetic binding model in TraceDrawer software (Ridgeview Instruments AB, Uppsala, Sweden), and the equilibrium dissociation constant K D was calculated.

[4] = PC3-pip tumor-bearing mice, 5 nmol/mouse iv, 1 h pi
[5] = PC3-pip tumor-bearing mice, 5 nmol/mouse iv, 3 h pi
[6] = PC3-pip tumor-bearing mice, 5 nmol/mouse iv, 3 h pi, listed as [99mTc]Tc-BQ0501

T1 sequence (Q04609 whole entry): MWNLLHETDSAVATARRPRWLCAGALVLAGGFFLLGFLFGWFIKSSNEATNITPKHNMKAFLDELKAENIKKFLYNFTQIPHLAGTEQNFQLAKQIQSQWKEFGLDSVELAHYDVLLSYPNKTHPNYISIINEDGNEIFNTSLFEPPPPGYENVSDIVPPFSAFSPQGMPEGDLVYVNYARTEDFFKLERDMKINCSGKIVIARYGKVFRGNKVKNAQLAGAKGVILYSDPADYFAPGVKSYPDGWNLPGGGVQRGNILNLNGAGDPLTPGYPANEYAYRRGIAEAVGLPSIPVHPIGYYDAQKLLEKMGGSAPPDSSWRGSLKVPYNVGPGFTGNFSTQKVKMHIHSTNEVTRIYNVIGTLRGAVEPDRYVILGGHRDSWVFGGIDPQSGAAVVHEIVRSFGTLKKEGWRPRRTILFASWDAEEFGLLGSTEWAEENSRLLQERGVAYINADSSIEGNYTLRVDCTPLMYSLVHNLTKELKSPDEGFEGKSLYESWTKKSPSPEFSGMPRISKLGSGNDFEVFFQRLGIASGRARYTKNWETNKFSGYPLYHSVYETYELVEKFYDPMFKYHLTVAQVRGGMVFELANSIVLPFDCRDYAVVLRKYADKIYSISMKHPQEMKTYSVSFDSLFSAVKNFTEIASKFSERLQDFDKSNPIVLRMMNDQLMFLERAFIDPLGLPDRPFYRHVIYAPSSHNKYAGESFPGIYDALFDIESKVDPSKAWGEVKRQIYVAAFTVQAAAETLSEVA

SMILES: CC(=O)NC(CCCCNC(=O)CNC(=O)C(CO)NC(=O)C(CO)NC(=O)C(CO)NC(=O)CS)C(=O)NCCCCCCCC(=O)NC(Cc1ccc(O)cc1)C(=O)NC(Cc1ccc2ccccc2c1)C(=O)NCCCCC(NC(=O)NC(CCC(=O)O)C(=O)O)C(=O)O (centres unmarked) [[^99mTc]Tc-BQ0501, metal not drawn]
- maximum of internalized activity (PC3-pip cells [1]): 42–43 % of cell-associated activity
- activity uptake by PC3-pip cells (PC3-pip cells [2]; 2 nM tracer): 62 ± 7 % of added activity
- activity uptake by PC3-pip cells after presaturation with PSMA-11 (PC3-pip cells [2]; 250-fold excess of nonlabeled PSMA-11, 2 nM tracer): significantly (p < 0.0001) decreased
- intact tracer in PBS ([3]; PBS control, 37 °C, n = 3): 97.4 ± 0.9%
- intact tracer in murine serum ([3]; mouse, 5 µg/mL): 98.7 ± 0.6%
- logD (physchem): -2.4 ± 0.1
- activity in carcass (PC3-pip xenografts; [4]): 8 ± 2 ^b %IA/sample
- activity in intestines with content (PC3-pip xenografts; [4]): 9 ± 1 ^b ^e %IA/sample
- activity uptake in blood (PC3-pip xenografts; [4]): 1.6 ± 0.5 ^b %IA/g
- activity uptake in bone (PC3-pip xenografts; [4]): 0.4 ± 0.1 ^b ^e %IA/g
- activity uptake in kidney (PC3-pip xenografts; [4]): 21 ± 6 ^b %IA/g
- activity uptake in liver (PC3-pip xenografts; [4]): 1.8 ± 0.7 ^b %IA/g
- activity uptake in lung (PC3-pip xenografts; [4]): 1.6 ± 0.4 ^b %IA/g
- activity uptake in muscle (PC3-pip xenografts; [4]): 0.3 ± 0.1 ^b %IA/g
- activity uptake in pancreas (PC3-pip xenografts; [4]): 0.45 ± 0.05 ^b %IA/g
- activity uptake in salivary gland (PC3-pip xenografts; [4]): 0.6 ± 0.2 ^b ^, ^e %IA/g
- activity uptake in small intestines (PC3-pip xenografts; [4]): 1.4 ± 0.6 ^b ^e %IA/g
- activity uptake in spleen (PC3-pip xenografts; [4]): 2.4 ± 0.5 ^b %IA/g
- activity uptake in stomach (PC3-pip xenografts; [4]): 0.6 ± 0.2 ^b ^e %IA/g
- activity uptake in tumor (PC3-pip xenografts; [4]): 27 ± 7 %IA/g
- tumor-to-blood ratio (PC3-pip xenografts; [4]): 19 ± 8 ^b
- tumor-to-bone ratio (PC3-pip xenografts; [4]): 62 ± 18 ^b ^, ^e
- tumor-to-kidney ratio (PC3-pip xenografts; [4]): 1.3 ± 0.5 ^b
- tumor-to-liver ratio (PC3-pip xenografts; [4]): 17 ± 7 ^b
- tumor-to-lung ratio (PC3-pip xenografts; [4]): 17 ± 6 ^b
- tumor-to-muscle ratio (PC3-pip xenografts; [4]): 86 ± 34 ^b
- tumor-to-pancreas ratio (PC3-pip xenografts; [4]): 62 ± 24 ^b
- tumor-to-salivary gland ratio (PC3-pip xenografts; [4]): 47 ± 19 ^b ^, ^e
- tumor-to-small intestines ratio (PC3-pip xenografts; [4]): 22 ± 11 ^b
- tumor-to-spleen ratio (PC3-pip xenografts; [4]): 12 ± 5 ^b
- tumor-to-stomach ratio (PC3-pip xenografts; [4]): 46 ± 18 ^b ^, ^e
- activity in carcass (PC3-pip xenografts; [5]): 3 ± 1 %IA/sample
- activity in intestines with content (PC3-pip xenografts; [5]): 11.0 ± 0.5 ^e %IA/sample
- activity uptake in blood (PC3-pip xenografts; [5]): 0.14 ± 0.07 %IA/g
- activity uptake in bone (PC3-pip xenografts; [5]): 0.07 ± 0.03 ^e %IA/g
- activity uptake in kidney (PC3-pip xenografts; [5]): 4 ± 2 ^e %IA/g
- activity uptake in liver (PC3-pip xenografts; [5]): 0.18 ± 0.06 %IA/g
- activity uptake in lung (PC3-pip xenografts; [5]): 0.21 ± 0.07 %IA/g
- activity uptake in muscle (PC3-pip xenografts; [5]): 0.08 ± 0.04 %IA/g
- activity uptake in pancreas (PC3-pip xenografts; [5]): 0.1 ± 0.1 %IA/g
- activity uptake in salivary gland (PC3-pip xenografts; [5]): 0.14 ± 0.06 ^e %IA/g
- activity uptake in small intestines (PC3-pip xenografts; [5]): 0.17 ± 0.03 %IA/g
- activity uptake in spleen (PC3-pip xenografts; [5]): 0.3 ± 0.2 %IA/g
- activity uptake in stomach (PC3-pip xenografts; [5]): 0.14 ± 0.06 %IA/g
- tumor-to-bone ratio (PC3-pip xenografts; [5]): 515 ± 113 ^e
- tumor-to-kidney ratio (PC3-pip xenografts; [5]): 10 ± 2 ^e
- tumor-to-liver ratio (PC3-pip xenografts; [5]): 222 ± 89 ^e
- tumor-to-lung ratio (PC3-pip xenografts; [5]): 178 ± 61 ^e
- tumor-to-muscle ratio (PC3-pip xenografts; [5]): 504 ± 195
- tumor-to-pancreas ratio (PC3-pip xenografts; [5]): 463 ± 135 ^e
- tumor-to-salivary gland ratio (PC3-pip xenografts; [5]): 302 ± 146 ^e
- tumor-to-small intestines ratio (PC3-pip xenografts; [5]): 209 ± 46
- tumor-to-spleen ratio (PC3-pip xenografts; [5]): 121 ± 47 ^e
- tumor-to-stomach ratio (PC3-pip xenografts; [5]): 287 ± 102 ^e
- activity in carcass (PC3-pip xenografts; [6]): 3±1 %IA/sample
- activity in intestines with content (PC3-pip xenografts; [6]): 11.0±0.5 %IA/sample
- activity uptake in blood (PC3-pip xenografts; [6]): 0.14±0.07 %IA/g
- activity uptake in bone (PC3-pip xenografts; [6]): 0.07±0.03 %IA/g
- activity uptake in kidney (PC3-pip xenografts; [6]): 4±2 %IA/g
- activity uptake in liver (PC3-pip xenografts; [6]): 0.18±0.06 %IA/g
- activity uptake in lung (PC3-pip xenografts; [6]): 0.21±0.07 %IA/g
- activity uptake in muscle (PC3-pip xenografts; [6]): 0.08±0.04 %IA/g
- activity uptake in pancreas (PC3-pip xenografts; [6]): 0.1±0.1 %IA/g
- activity uptake in salivary gland (PC3-pip xenografts; [6]): 0.14±0.06 %IA/g
- activity uptake in small intestines (PC3-pip xenografts; [6]): 0.17±0.03 %IA/g
- activity uptake in spleen (PC3-pip xenografts; [6]): 0.3±0.2 %IA/g
- activity uptake in stomach (PC3-pip xenografts; [6]): 0.14±0.06 %IA/g
- activity uptake in tumor (PC3-pip xenografts; [6]): 35±4 %IA/g
- excretion pathway (PC3-pip xenografts; PC3-pip xenografts): predominantly renal
- B max1 (binding maximum) (PSMA; 5 nM tracer, 1:2 model (1:1 for BQ0413)): 492 CPS
- Kd (PSMA; 5 nM tracer, 1:2 model (1:1 for BQ0413), read-out: K D1): 0.474 nM
- kon (PSMA; 5 nM tracer, 1:2 model (1:1 for BQ0413), read-out: k a1 (association rate)): 27000 M⁻¹ s⁻¹
- koff (PSMA; 5 nM tracer, 1:2 model (1:1 for BQ0413), read-out: k d1 (dissociation rate)): 1.2e-05 s⁻¹
- B max2 (binding maximum) (PSMA; 5 nM tracer, 1:2 model, second interaction): 272 CPS
- Kd (PSMA; 5 nM tracer, 1:2 model, second interaction, read-out: K D2): 3.6 nM
- kon (PSMA; 5 nM tracer, 1:2 model, second interaction, read-out: k a2 (association rate)): 49000 M⁻¹ s⁻¹
- koff (PSMA; 5 nM tracer, 1:2 model, second interaction, read-out: k d2 (dissociation rate)): 0.00016 s⁻¹
- affinity compromised in comparison with [99mTc]Tc-BQ0413 (PSMA; PC3-pip cells): 3–5 fold
- Kd (PSMA; as rounded in comparison table, read-out: K D1): 0.5 nM
- Kd (PSMA; as rounded in comparison table, read-out: K D2): 3.6 nM
